The text below walks through data of PMC5343914, “Phytochemical Analysis of Agrimonia pilosa Ledeb, Its Antioxidant Activity and Aldose Reductase Inhibitory Potential” (International Journal of Molecular Sciences, 2017).

Read-outs that look alike come from different tables or passages of the source.

The target of test [1] is T1, rat lens aldose reductase (RLAR) (Rattus norvegicus, UniProt P07943).
T1 construct: The supernatant was collected and used as the RLAR; from tissue; host or cells: Sprague–Dawley rat lens homogenate, 10,000 x g supernatant
Put plainly: Determination of RLAR inhibition in vitro (NADPH decrease at 340 nm, DL-glyceraldehyde substrate).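 As to all read-outs here: crude enzyme from Sprague–Dawley rat lens homogenate supernatant, absorbance read over 3 min in pH 6.2 potassium phosphate buffer with 1.6 mM NADPH and 25 mM substrate.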 Type of test: biochemical. Also noted: inhibition: dose or concentration left out as unconfirmed. The note with it: for IC50: Experiments; for inhibition: Table 2, printed under head DPPH/Experiments. In general terms: The DPPH test is a chemical assay of radical scavenging.
Method: Crude RLAR was prepared as follows: lenses weighing 250–280 g were removed from Sprague–Dawley rats and frozen at −70 °C until use. […] Non-cataractous transparent lenses were pooled and a homogenate was prepared in 0.1 M phosphate-buffered saline (pH 6.2). RLAR homogenate was then centrifuged at 10,000× g for 20 min at 4 °C in a refrigerated centrifuge. The supernatant was collected and used as the RLAR. All procedures were carried out at 4 °C [37].
RLAR activity was assayed spectrophotometrically by measuring the decrease in the absorption of NADPH at 340 nm over a 3-min period using DL-glyceraldehyde as the substrate. Each 1.0 mL cuvette contained equal units of the enzyme, 0.10 M potassium phosphate buffer (pH 6.2), 1.6 mM NADPH, 25 mM DL-glyceraldehyde (the substrate), and an inhibitor or dimethyl sulfoxide (DMSO).

Test [2] in a line: DPPH free radical scavenging capacity. How it is done:
The stable free radical was used to determine the free radical-scavenging activity of the extracts. Briefly, a 0.32 mM solution of DPPH in MeOH was prepared, and 180 µL of this solution was mixed with 30 µL of each sample at concentrations of 0.05–1.0 mg/mL in DMSO. After 20 min of incubation in the darkroom, the decrease in the absorbance of the solution was measured at 570 nm on a microplate reader (EL800 Universal Microplate reader, Bio-Tek instruments, Winooski, VT, USA). DPPH inhibitory activity was expressed as the percentage inhibition (%) of DPPH in the aforementioned assay system, and was calculated as [1 − (Asample − Ablank/Acontrol − Ablank)] × 100%, where Acontrol is the absorbance of DPPH solution (180 µL) with methanol (30 µL); Ablank is the absorbance of distilled water (180 µL) with methanol (30 µL); Asample is the absorbance of DPPH solution (180 µL) with sample solution (30 µL).

Test [3] concerns the target T1, rat lens aldose reductase (RLAR).
Test [4] is described as follows: Offline DPPH HPLC assay of the n-BuOH fraction (peak area reduction). To be noted: n-BuOH fraction 20 mg/mL mixed with […] DPPH, 20 min, HPLC 254 nm. How it is done: The sample was analyzed using an Agilent Technologies modular model 1200 system with a vacuum degasser (G1322A), a quaternary pump (G1311A), an auto-sampler (G1329A), a thermo-statted column compartment (G1316A), and a variable wavelength detector (VWD, G1314D) system. The separation was achieved on an Eclipse XDB-phenyl column (150 mm × 4.6 mm, 3.5 μm) maintained at 30 °C. The elution solvents were 0.1% trifluoroacetic acid (A) and MeOH (B) with the following gradient: 20%–30% B (0–3 min), 30%–40% B (3–10 min), 40%–50% B (10–20 min), 50%–60% B […], 60%–100% B (25–35 min), 100%–100% B (35–38 min), 100%–20% B (38–40 min), and 20%–20% B (40–45 min). Injection volume was 10 µL (sample concentration: 1 mg/mL) and UV wavelength was 254 nm.
The offline DPPH HPLC assay was performed by modifying a previously-described protocol. Thirty microliters (20 mg/mL in MeOH) of the n-BuOH fraction from APE were mixed with 180 μL prepared DPPH solution (0.32 mM). The mixture was incubated in the dark for 20 min, then filtered through a 0.45-μm filter for HPLC analysis. The n-BuOH (20 mg/mL in MeOH) was used as a control. The extent of peak decrease is expressed as a quantitative reduction.

The test system of test [5] is sorbitol accumulation in rat lenses. Put plainly: Lens culture and intracellular sorbitol measurement (ex vivo). To be noted: compound 5.0 μg/mL; for Inhibition (%) of sorbitol accumulation in rat lens: isolated rat lens ex vivo; for Sorbitol Content (mg)/Lens Wet Weight (g): isolated rat lens, 30 mM glucose medium, 6 d. How it is done: Lenses isolated from 10-week-old Sprague–Dawley rats using the registration number mentioned in the section of 4.5 were cultured for 6 d in TC-199 medium that contained 15% fetal bovine serum, 100 units/mL penicillin, and 0.1 mg/mL streptomycin, under sterile conditions and an atmosphere of 5% CO2 and 95% air at 37 °C. Samples were dissolved in DMSO. The lenses were divided into three groups and cultured in medium containing 30 mM glucose and RLAR-active compounds. Each lens was placed in a well containing 2.0 mL of medium. Sorbitol was determined by HPLC using the methods mentioned in the section of 4.7 after its derivatization by reaction with benzoic acid to a fluorescent compound [42].

Test [6] addresses T2, recombinant human aldose reductase (RHAR) (Homo sapiens, UniProt P15121).
T2 construct: purchased Wako Pure Chemical Industries (Osaka, Japan)
The note with it: cited from earlier work; for Inhibition type (References): Table 3; for inhibition pattern against RHAR: ref Lee et al., Ha et al., Chethan et al. 31, 32, 33.

Where [7] appears, read: literature value; read-out: RLAR IC50 (References); cited from earlier work.

In general, IC50 refers to the concentration at which inhibition is half-maximal. What is called inhibition is the percentage by which the read-out fell short of the control. As to `O=c1c(O[C@@H]2O[C@H](CO)[C@@H](O)[C@H](O)[C@H]2O)c(-c2ccc(O)c(O)c2)oc2cc(O)cc(O)c12` [Isoquercitrin (IQC), Isoquercitrin], the IC50 is 5.1 ± 0.88 µM in test [1], 65.9 ± 0.46 µM in test [2] and 4.5 µM in test [3] (setting [7]). Also, the inhibition in test [1] was 41 ± 1.07%.

On to `O=C(O)CC1(CC(=O)O)CCCC1` [TMG, tetramethylene glutaric acid], for which the IC50 in test [1] was 0.5 ± 0.05 µM; in test [3] (setting [7]), 1 µM. Moreover, in test [1] (Table 1, concentration not in table, text b9: crude extract 10.0 μg/mL, EtOAc, n-BuOH fractions and TMG 1.0 μg/mL), the “Inhibition (%) RLAR” value is reported as 99.7 ± 0.11%.

Consider `Oc1cc(O)c2c(c1)OC(c1ccc(O)c(O)c1)C(O)C2` (centres unmarked) [Catechin (CT), catechin], for which the results for the concentration for half-maximal inhibition (IC50) in test [1], in test [2] and in test [3] (setting [7]) were > 30 µM, 106.7 ± 0.43 µM and > 30 µM, respectively. Besides, the inhibition in test [1] turned out to be 7.2 ± 1.02%.

Take `O=c1cc(-c2ccc(O)cc2)oc2cc(O[C@@H]3O[C@H](CO)[C@@H](O)[C@H](O)[C@H]3O)cc(O)c12` [Apigenin-7-O-glucoside (AGC), apigenin-7-O-glucoside]: the IC50 is 4.3 ± 0.14 µM in test [1], > 250 µM in test [2] and 23 µM in test [3] (setting [7]). This compound returned an inhibition in test [1] of 40.2 ± 0.56%. In addition, the “DPPH free radical scavenging activity (in words)” value in test [2] is on record as “almost no DPPH free radical scavenging activity”. For the same compound, the “peak area reduction (PAR)” value in test [4] is “lower than 20.0%”.

For the compound `C[C@@H]1O[C@@H](Oc2c(-c3ccc(O)cc3)oc3cc(O)cc(O)c3c2=O)[C@H](O)[C@H](O)[C@H]1O` [Afzelin (AZ), afzelin], in test [2], the “DPPH free radical scavenging activity (in words)” value is recorded as “no DPPH free radical scavenging activity” and the IC50 is > 250 µM. In test [5], the “Inhibition (%) of sorbitol accumulation in rat lens” value (from here on “Inhibition (%) … in rat lens”) is on record as 93.2 ± 8.67% and the “Sorbitol Content (mg)/Lens Wet Weight (g)” value (shortened to “Sorbitol Content”) stood at 0.10 ± 0.01 mg/g.

As for `O=c1cc(-c2ccc(O)c(O)c2)oc2cc(O[C@@H]3O[C@H](CO)[C@@H](O)[C@H](O)[C@H]3O)cc(O)c12` [Luteolin-7-O-glucoside (LGC), luteolin-7-O-glucoside], the results for the half-maximal inhibitory concentration (IC50) in test [1], in test [2] and in test [3] (setting [7]) were 8.1 ± 0.72 µM, 71.5 ± 0.29 µM and 7.5 µM, respectively. The inhibition in test [1] worked out at 46.9 ± 0.95%. Moreover, the “peak area reduction (PAR)” value in test [4] is reported as “lower than 20.0%”.

For `O=c1cc(-c2ccc(O)cc2)oc2cc(O)cc(O)c12` [Apigenin (AG), apigenin], the 50% inhibitory concentration (IC50) is 3.2 ± 0.21 µM in test [1], 156.3 ± 1.21 µM in test [2] and 2.2 µM in test [3] (read-out: RLAR IC50 (References); literature value; cited from earlier work). Also, the inhibition in test [1] is 81.8 ± 1.2%.

As for `O=c1c(O[C@@H]2O[C@H](CO)[C@@H](O)[C@H](O)[C@H]2O)c(-c2ccc(O)cc2)oc2cc(O)cc(O)c12` [Astragalin (AS), astragalin], in test [1], the IC50 stood at 5.1 ± 0.89 µM and the inhibition came out at 53.3 ± 1.14%. Besides, in test [2], the “DPPH free radical scavenging activity (in words)” value is on record as “no DPPH free radical scavenging activity” and the half-maximal inhibitory concentration (IC50) is > 250 µM. The 50% inhibitory concentration (IC50) in test [3] (setting [7]) was > 30 µM.

For the compound `C[C@@H]1O[C@@H](Oc2c(-c3ccc(O)c(O)c3)oc3cc(O)cc(O)c3c2=O)[C@H](O)[C@H](O)[C@H]1O` [Quercitrin (QU), quercitrin], in test [1], the inhibition at 10 µg/mL turned out to be 97.4 ± 1.38% and the IC50 came to 0.2 ± 0.02 µM. Also, in test [1] (IC50 0.2 μM vs TMG 0.5 μM), the “RLAR potency relative to positive control TMG (times higher)” value amounted to 2.5 times. For the same compound, in test [2], the IC50 is 77.9 ± 0.27 µM. In test [5], the “Inhibition (%) … in rat lens” value worked out at 76.9 ± 5.32% and the “Sorbitol Content” value was 0.34 ± 0.02 mg/g. In test [6], the “Inhibition type (References)” value was “Uncompetitive [29]” and the “inhibition pattern against RHAR” value was “uncompetitive”.

In the case of `O=c1cc(-c2ccc(O)cc2)oc2c([C@@H]3O[C@H](CO)[C@@H](O)[C@H](O)[C@H]3O)c(O)cc(O)c12` [Vitexin (VT), vitexin], in test [1], the IC50 is > 30 µM and the inhibition was determined as 12.2 ± 0.95%. For the same compound, in test [2], the “DPPH free radical scavenging activity (in words)” value was “no DPPH free radical scavenging activity” and the IC50 was > 250 µM. The IC50 in test [3] (setting [7]) was > 30 µM.

As to `C[C@@H]1O[C@@H](OC[C@H]2O[C@@H](Oc3c(-c4ccc(O)c(O)c4)oc4cc(O)cc(O)c4c3=O)[C@H](O)[C@@H](O)[C@@H]2O)[C@H](O)[C@H](O)[C@H]1O` [Rutin (RT), rutin], in test [1], half-maximal inhibition (IC50) was put at 9.5 ± 0.75 µM and the inhibition came out at 31.7 ± 0.65%. The compound further showed a half-inhibitory concentration (IC50) in test [2] of 66.8 ± 0.34 µM. The “peak area reduction (PAR)” value in test [4] is on record as “lower than 20.0%”.

In test [1], `O=c1cc(-c2ccc(O)c(O)c2)oc2cc(O)cc(O)c12` [Luteolin (LT), luteolin] returned an inhibition of 80.2 ± 0.9%. For the same compound, half-maximal inhibition in test [2] (IC50) was put at 88.2 ± 0.52 µM. In test [5], the “Inhibition (%) … in rat lens” value amounted to 91.8 ± 7.91% and the “Sorbitol Content” value came out at 0.12 ± 0.01 mg/g. Moreover, in test [6], the “Inhibition type (References)” value is “Mixed type [30]” and the “inhibition pattern against RHAR” value is on record as “mixed-type”.

Turning to `O=C(O)[C@H]1O[C@@H](Oc2cc(O)c3c(=O)cc(-c4ccc(O)cc4)oc3c2)[C@H](O)[C@@H](O)[C@@H]1O` [Apigenin-7-O-glucuronide (AGN), apigenin-7-O-glucuronide], in test [1], the “RLAR inhibitory activity (in words)” value was “inactive”, the half-maximal inhibitory concentration (IC50) is > 30 µM and the inhibition is < 0%. Moreover, in test [2], the “DPPH free radical scavenging activity (in words)” value is on record as “almost no DPPH free radical scavenging activity” and the concentration for half-maximal inhibition (IC50) is > 250 µM. Besides, the “peak area reduction (PAR)” value in test [4] is “lower than 20.0%”.

On to `O=C1O[C@H]([C@@H](O)CO)C(O)=C1O` [L-Ascorbic acid, L-ascorbic acid], for which the IC50 in test [2] turned out to be 147.3 ± 0.43 µM. In test [2] (Table 1, concentration not in table, text b9: crude extract 7.1 μg/mL), the “Inhibition (%) DPPH” value turned out to be 81.0 ± 0.01%.

Turning to `O=c1c(O[C@@H]2O[C@H](CO)[C@H](O)[C@H](O)[C@H]2O)c(-c2ccc(O)c(O)c2)oc2cc(O)cc(O)c12` [Hyperin (HP), hyperin], the concentration for half-maximal inhibition (IC50) in test [1] is 4.1 ± 0.32 µM; in test [2], 73.3 ± 0.23 µM; in test [3] (setting [7]) it was 3 µM. The same compound returned an inhibition in test [1] of 90.8 ± 0.96%.

For `O=c1c(O)c(-c2ccc(O)c(O)c2)oc2cc(O)cc(O)c12` [Quercetin (QC), quercetin], in test [1], the inhibition at 10 µg/mL was found to be 74.1 ± 0.85%. In test [2], the IC50 came out at 70.4 ± 0.15 µM. Besides, in test [5], the “Inhibition (%) … in rat lens” value is 85.7 ± 8.32% and the “Sorbitol Content” value turned out to be 0.21 ± 0.02 mg/g. Further, in test [6], the “Inhibition type (References)” value was “Noncompetitive [31]” and the “inhibition pattern against RHAR” value is given as “noncompetitive”.

Turning to `O=c1c(O)c(-c2ccc(O)cc2)oc2cc(O)cc(O)c12` [Kaempferol (KP), kaempferol], the IC50 in test [1] is 15.2 ± 1.32 µM; in test [2], 91.6 ± 0.68 µM; in test [3] (setting [7]), 10 µM. The inhibition in test [1] amounted to 11.8 ± 0.81%.
